According to patent US10487054B2, “Therapeutic compounds” (REGENTS OF THE UNIVERSITY OF MINNESOTA, priority 2017, dated 2019):

Key:
MEK1 = molecular target: T1, MEK1 (Homo sapiens, UniProt Q02750); experiment: In vitro kinase assay ([γ-32P] ATP, autoradiography); type: biochemical; conditions: 0.5, 1, 3, 5 or 10 μM
T1 construct: purchased Millipore (Billerica, Mass.)
Procedure: Active TOPK (200 ng) was incubated with different concentrations of ATP (0, 10 or 100 μM) and then mixed with compound 1-conjugated Sepharose 4B beads or Sepharose 4B beads. Proteins were pulled down and analyzed by Western blot. Data are representative of 3 independent experiments that gave similar results. FIGS. 2C and 2D show compound 1 binds to either TOPK (2C) or MEK1/2 (2D) ex vivo. Lysates from HaCaT cells (500 μg) were incubated with compound 1-conjugated Sepharose 4B beads or Sepharose 4B beads alone and the pulled-down proteins were analyzed by Western blot. Data are representative of 3 independent experiments that gave similar results. FIGS. 2E and 2F show compound 1 inhibits TOPK kinase (2E) activity but not MEK1 kinase (2F) activity in vitro. Active TOPK (200 ng) was mixed with compound 1 (0, 0.5, 1, 3, or 5 μM) or HI-032 (TOPK inhibitor, 10 μM) and then incubated with a [γ-^32P] ATP mixture. Similarly, MEK1 (200 ng) was mixed with compound 1 (0, 0.5, 1, 3, 5, or 10 μM) or PD098059 (MEK1 inhibitor, 5 μM) and then incubated with a [γ-^32P] ATP mixture. For 2E and 2F, the results are visualized by autoradiography and Coomassie blue staining serves as a loading control. […]
The in vitro kinase assay was conducted according to the instructions provided by Millipore (Billerica, Mass.). […] The relative amounts of incorporated radioactivity were assessed by autoradiography.

HaCaT cells = experiment: Western blot of SUV-induced TOPK downstream signaling; type: cell-based, human
Procedure: The cells were cultured, treated for 4 h with different concentrations of compound 1 and then exposed to SUV (60 kJ UVA/m^2 and 2.9 kJ UVB/m^2), followed by an additional 15-minute incubation. Cells were harvested and the levels of phosphorylated and total proteins were determined by Western blot analysis with specific antibodies as indicated. […] The cells were cultured and treated with different concentrations of compound 1 for 24 h. Cells were harvested and the levels of phosphorylated and total proteins were determined by Western blot analysis with specific antibodies as indicated. […] For the luciferase assay, JB6 P+ cells stably transfected with an AP-1 luciferase reporter plasmid were cultured. After starvation for 24 h, cells were treated for 1 h with compound 1 (0, 1.25, 2.5, or 5 μM). Cells were then exposed to SUV (60 kJ UVA/m^2 and 2.9 kJ UVB/m^2) and harvested 3 h later. Luciferase activity was measured and AP-1 activity is expressed relative to control cells without SUV treatment. […] Knockdown of TOPK in A431 cell line (left). Stable control or TOPK knockdown cells were co-transfected with 100 ng of the AP-1 luciferase reporter plasmid and 50 ng of internal control […] plasmid. Cells were transfected using iMFectin poly DNA transfection reagent (GenDEPOT) according to the manufacturer's instructions. After 12 h of transfection, cells were incubated with the different concentrations of compound 1 for another 24 h. Luciferase and […] activities were measured using reagents included in the reporter assay system (right). Data are shown as mean values±S.D obtained from triplicate experiments. Significant differences were evaluated using one-way ANOVA and the asterisks (*) indicate a significant effect (*, p<0.05; **, p<0.001; ***, p<0.0001). […]
HaCaT or JB6 P+ cells (1×10^6) were cultured in 10-cm dishes for 24 h and then the medium was replaced with 0.1% FBS medium for 24 h. […] Protein concentration in cell lysates was determined using a protein assay kit (Bio-Rad Laboratories, Hercules, Calif.). […]

T1 sequence (Q02750 whole entry): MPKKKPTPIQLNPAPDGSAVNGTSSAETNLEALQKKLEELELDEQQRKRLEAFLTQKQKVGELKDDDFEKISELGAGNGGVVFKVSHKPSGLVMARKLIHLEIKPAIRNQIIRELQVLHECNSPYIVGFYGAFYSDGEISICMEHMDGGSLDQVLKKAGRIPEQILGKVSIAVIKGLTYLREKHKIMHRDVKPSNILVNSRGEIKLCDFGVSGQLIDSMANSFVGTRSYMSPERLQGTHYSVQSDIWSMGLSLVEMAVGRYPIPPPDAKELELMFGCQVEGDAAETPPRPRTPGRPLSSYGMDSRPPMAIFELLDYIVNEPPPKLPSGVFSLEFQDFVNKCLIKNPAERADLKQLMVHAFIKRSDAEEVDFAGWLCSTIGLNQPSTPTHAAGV

MEK1 kinase activity (MEK1): but not MEK1 activity
Compound: O=C1Nc2ccc(C34CC5CC(CC(C5)C3)C4)cc2C1=NO [compound 1, 5-(adamantan-1-yl)-3-(hydroxyimino)indolin-2-one]
phosphorylated c-Jun protein levels (HaCaT cells; HaCaT cells exposed to SUV): significantly suppressed
phosphorylation of ERK1/2, p38, and JNKs (HaCaT cells; HaCaT cells, 4 h treatment then SUV (60 kJ UVA/m2 and 2.9 kJ UVB/m2)): markedly suppressed
phosphorylated and total TOPK protein levels (HaCaT cells; Western blot, cell lines not specified in the sentence (FIG. 3A, 3B)): no significant changes
